Data from ChEMBL document CHEMBL1136672, “Synthesis and pharmacological activity of fluorescent histamine H1 receptor antagonists related to mepyramine” (Bioorg Med Chem Lett, 2003).

Tests used:
Histamine H1 receptor = Histamine H1 receptor (Cavia porcellus, UniProt P31389); experiment: Histamine H1 receptor antagonistic activity in guinea pig ileum […]; assay type: functional, tissue-based; conditions: read-out: pA2 (converted)
[1] = target: Histamine H1 receptor (Homo sapiens) (UniProt P35367); conditions: U-373MG ATCC
Chain of Histamine H1 receptor (Homo sapiens) (P35367 whole entry): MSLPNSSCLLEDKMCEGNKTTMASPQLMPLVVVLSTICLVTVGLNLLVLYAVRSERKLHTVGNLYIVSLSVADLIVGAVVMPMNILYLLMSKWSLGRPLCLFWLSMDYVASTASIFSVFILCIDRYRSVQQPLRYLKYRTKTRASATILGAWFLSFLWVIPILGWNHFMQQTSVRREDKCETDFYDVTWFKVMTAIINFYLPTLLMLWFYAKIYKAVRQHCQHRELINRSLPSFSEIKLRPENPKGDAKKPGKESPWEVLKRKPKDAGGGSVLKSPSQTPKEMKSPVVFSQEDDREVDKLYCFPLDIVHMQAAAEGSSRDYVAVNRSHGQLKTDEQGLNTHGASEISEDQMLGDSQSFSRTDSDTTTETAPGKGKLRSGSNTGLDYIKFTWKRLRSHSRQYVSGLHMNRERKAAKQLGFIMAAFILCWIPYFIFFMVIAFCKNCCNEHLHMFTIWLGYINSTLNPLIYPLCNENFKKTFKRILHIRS
Description: Histamine H1 receptor antagonistic activity in U373MG human glioblastoma cells using fluorescence-labeled H1 as radioligand in Ca+2 assay

Chain of Histamine H1 receptor (P31389 whole entry): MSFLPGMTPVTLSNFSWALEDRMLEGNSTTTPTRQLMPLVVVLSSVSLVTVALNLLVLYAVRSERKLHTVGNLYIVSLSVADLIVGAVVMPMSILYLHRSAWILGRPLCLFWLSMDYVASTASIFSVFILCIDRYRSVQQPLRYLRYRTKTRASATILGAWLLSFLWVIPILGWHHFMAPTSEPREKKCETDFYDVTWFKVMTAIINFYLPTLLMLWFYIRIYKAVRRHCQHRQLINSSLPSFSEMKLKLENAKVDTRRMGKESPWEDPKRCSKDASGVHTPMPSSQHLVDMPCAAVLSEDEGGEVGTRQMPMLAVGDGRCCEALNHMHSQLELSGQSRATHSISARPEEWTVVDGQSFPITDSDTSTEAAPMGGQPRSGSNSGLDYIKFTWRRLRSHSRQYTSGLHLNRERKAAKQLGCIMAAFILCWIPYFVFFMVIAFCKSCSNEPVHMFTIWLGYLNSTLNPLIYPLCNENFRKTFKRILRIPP

Row | SMILES | Kb (Histamine H1 receptor) | pKB [1]
1 | COc1ccc(CN(CCN(C)CCNc2ccc([N+](=O)[O-])c3n[o+][n-]c23)c2ccccn2)cc1 | 4.68 nM | 
2 | COc1ccc(CN(CCN(C)CCCCN)c2ccccn2)cc1 | 22.4 nM | 7.61
3 | COc1ccc(CN(CCN(C)CCCCCCN)c2ccccn2)cc1 | 12.9 nM | 8.03
4 | CNCCN(Cc1ccc(OC)cc1)c1ccccn1 [2-[(2-METHYLAMINOETHYL)(P-METHOXYBENZYL)AMINO]PYRIDINE] | 6.61 nM | 8.12
5 | COc1ccc(CN(CCN(C)CCCCCCNC(=O)c2ccc(-c3c4ccc(=[N+](C)C)cc-4oc4cc(N(C)C)ccc34)c(C(=O)[O-])c2)c2ccccn2)cc1 | 33.1 nM | 7.54
6 | COc1ccc(CN(CCN(C)CCNC(=O)c2ccc(-c3c4ccc(=O)cc-4oc4cc(O)ccc34)c(C(=O)O)c2)c2ccccn2)cc1 | 69.2 nM | 7.21
7 | COc1ccc(CN(CCN(C)CCCCCCNS(=O)(=O)c2cccc3c(N(C)C)cccc23)c2ccccn2)cc1 | 17.8 nM | 7.76
8 | COc1ccc(CN(CCN(C)CCCCCCNC(=O)c2ccc(-c3c4ccc5cc(O)ccc5c4oc4c3ccc3cc(=O)ccc34)c(C(=O)O)c2)c2ccccn2)cc1 | 36.3 nM | 7.18
9 | COc1ccc(CN(CCN(C)CCNC(=O)c2ccc(C(=O)O)c(-c3c4ccc(=O)cc-4oc4cc(O)ccc34)c2)c2ccccn2)cc1 | 145 nM | 6.93
10 | COc1ccc(CN(CCN(C)CCNc2ccc([N+](=O)[O-])c3nonc23)c2ccccn2)cc1 |  | 8.12
11 | COc1ccc(CN(CCN(C)CCN)c2ccccn2)cc1 | 13.2 nM | 7.84
12 | COc1ccc(CN(CCN(C)CCCCCCNC(=O)CCCCCNc2ccc([N+](=O)[O-])c3nonc23)c2ccccn2)cc1 | 1.95 nM | 9.05
13 | COc1ccc(CN(CCN(C)CCCCNC(=O)c2ccc(C(=O)O)c(-c3c4ccc(=O)cc-4oc4cc(O)ccc34)c2)c2ccccn2)cc1 | 31.6 nM | 7.81
14 | COc1ccc(CN(CCN(C)CCCCCCCCN)c2ccccn2)cc1 | 9.77 nM | 8.06
15 | COc1ccc(CN(CCN(C)CCCCCCCCNC(=O)c2ccc(-c3c4ccc(=O)cc-4oc4cc(O)ccc34)c(C(=O)O)c2)c2ccccn2)cc1 | 3.39 nM | 8.94
16 | COc1ccc(CN(CCN(C)CCCCCCNC(=O)c2ccc(-c3c4ccc(=O)cc-4oc4cc(O)ccc34)c(C(=O)O)c2)c2ccccn2)cc1 | 21.4 nM | 8.17
17 | COc1ccc(CN(CCN(C)CCCCNC(=O)c2ccc(-c3c4ccc(=O)cc-4oc4cc(O)ccc34)c(C(=O)O)c2)c2ccccn2)cc1 | 4.47 nM | 8.47
18 | COc1ccc(CN(CCN(C)CCCCCCCCNC(=O)c2ccc(C(=O)O)c(-c3c4ccc(=O)cc-4oc4cc(O)ccc34)c2)c2ccccn2)cc1 | 5.01 nM | 8.53
19 | COc1ccc(CN(CCN(C)CCCCCCNC(=O)c2ccc(-c3c4ccc(=N)cc-4oc4cc(N)ccc34)c(C(=O)O)c2)c2ccccn2)cc1 | 26.3 nM | 7.68
20 | COc1ccc(CN(CCN(C)CCCCCCNC(=O)c2ccc(C(=O)O)c(-c3c4ccc(=O)cc-4oc4cc(O)ccc34)c2)c2ccccn2)cc1 | 26.3 nM | 8.4
